Measured values: PubChem BioAssay (NCI)
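GI50 marks 50% less growth. The concentration for full growth arrest is given as TGI.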

Tests used:
Assay in all cases: NCI-60 cell line screen, 384-well format
SF-295 CNS = tested on: SF-295 CNS
EKVX NSCLC = tested on: EKVX NSCLC
COLO 205 colon = tested on: COLO 205 colon
U251 glioblastoma = tested on: U251 glioblastoma
SK-OV-3 ovarian = tested on: SK-OV-3 ovarian
OVCAR-4 ovarian = tested on: OVCAR-4 ovarian
786-0 renal = tested on: 786-0 renal
NCI-H522 lung = tested on: NCI-H522 lung
SK-MEL-28 melanoma = tested on: SK-MEL-28 melanoma
HT29 colon = tested on: HT29 colon
ACHN renal = tested on: ACHN renal
MCF7 breast = tested on: MCF7 breast
SF-539 CNS = tested on: SF-539 CNS
RXF 393 renal = tested on: RXF 393 renal
BT-549 breast = tested on: BT-549 breast
HL-60(TB) leukemia = tested on: HL-60(TB) leukemia
MDA-MB-468 breast = tested on: MDA-MB-468 breast
NCI/ADR-RES ovarian = tested on: NCI/ADR-RES ovarian
LOX IMVI melanoma = tested on: LOX IMVI melanoma
UO-31 renal = tested on: UO-31 renal
RPMI-8226 leukemia = tested on: RPMI-8226 leukemia
HCT-15 colon = tested on: HCT-15 colon
SW-620 colon = tested on: SW-620 colon
UACC-62 melanoma = tested on: UACC-62 melanoma
DU-145 prostate = tested on: DU-145 prostate
OVCAR-8 ovarian = tested on: OVCAR-8 ovarian
SNB-75 CNS = tested on: SNB-75 CNS
MOLT-4 leukemia = tested on: MOLT-4 leukemia
HCC-2998 colon = tested on: HCC-2998 colon
M14 melanoma = tested on: M14 melanoma
SF-268 CNS = tested on: SF-268 CNS
NCI-H226 lung = tested on: NCI-H226 lung
MALME-3M melanoma = tested on: MALME-3M melanoma
UACC-257 melanoma = tested on: UACC-257 melanoma
NCI-H460 NSCLC = tested on: NCI-H460 NSCLC
K-562 leukemia = tested on: K-562 leukemia
SN12C renal = tested on: SN12C renal
A549 NSCLC = tested on: A549 NSCLC
HS 578T breast = tested on: HS 578T breast
A498 renal = tested on: A498 renal
HOP-62 NSCLC = tested on: HOP-62 NSCLC
MDA-MB-435 melanoma = tested on: MDA-MB-435 melanoma
T-47D breast = tested on: T-47D breast
SR leukemia = tested on: SR leukemia
OVCAR-3 ovarian = tested on: OVCAR-3 ovarian
MDA-MB-231 breast = tested on: MDA-MB-231 breast
PC-3 prostate = tested on: PC-3 prostate
NCI-H23 lung = tested on: NCI-H23 lung
SK-MEL-5 melanoma = tested on: SK-MEL-5 melanoma
TK-10 renal = tested on: TK-10 renal
SNB-19 CNS = tested on: SNB-19 CNS
NCI-H322M lung = tested on: NCI-H322M lung
KM12 colon = tested on: KM12 colon
CAKI-1 renal = tested on: CAKI-1 renal
OVCAR-5 ovarian = tested on: OVCAR-5 ovarian
IGROV1 ovarian = tested on: IGROV1 ovarian
HCT-116 colon = tested on: HCT-116 colon
SK-MEL-2 melanoma = tested on: SK-MEL-2 melanoma
HOP-92 NSCLC = tested on: HOP-92 NSCLC
CCRF-CEM leukemia = tested on: CCRF-CEM leukemia

## CC(C)c1cc(CNc2nc(Nc3cc(C4CC4)[nH]n3)cc(N3CCN(C)CC3)n2)on1
SF-295 CNS
  GI50: 0.063 µM
  TGI: 1.05 µM
EKVX NSCLC
  GI50: 0.0288 µM
  TGI: 0.359 µM
COLO 205 colon
  GI50: < 0.01 µM
  TGI: 0.0211 µM
U251 glioblastoma
  GI50: 0.209 µM
  TGI: 10.5 µM
SK-OV-3 ovarian
  GI50: 0.0696 µM
  TGI: 12.7 µM
OVCAR-4 ovarian
  GI50: 1.16 µM
  TGI: 4.54 µM
786-0 renal
  GI50: 0.135 µM
  TGI: 0.904 µM
NCI-H522 lung
  GI50: 0.0149 µM
  TGI: 0.598 µM
SK-MEL-28 melanoma
  GI50: 0.121 µM
  TGI: 1.39 µM
HT29 colon
  GI50: 0.0217 µM
  TGI: 1.48 µM
ACHN renal
  GI50: 0.225 µM
  TGI: 13.4 µM
MCF7 breast
  GI50: < 0.01 µM
  TGI: 10.9 µM
SF-539 CNS
  GI50: 0.0311 µM
  TGI: 0.228 µM
RXF 393 renal
  GI50: 0.0604 µM
  TGI: 0.248 µM
BT-549 breast
  GI50: 0.0341 µM
  TGI: 0.197 µM
HL-60(TB) leukemia
  GI50: < 0.01 µM
MDA-MB-468 breast
  GI50: 0.0141 µM
  TGI: 0.0426 µM
NCI/ADR-RES ovarian
  GI50: 2.67 µM
  TGI: 14.1 µM
LOX IMVI melanoma
  GI50: 0.0298 µM
  TGI: 0.164 µM
UO-31 renal
  GI50: 0.221 µM
  TGI: 1.27 µM
RPMI-8226 leukemia
  GI50: 0.0196 µM
  TGI: 0.188 µM
HCT-15 colon
  GI50: 0.246 µM
  TGI: 2.93 µM
SW-620 colon
  GI50: 0.0239 µM
  TGI: 1.19 µM
UACC-62 melanoma
  GI50: 0.0473 µM
  TGI: 1.59 µM
DU-145 prostate
  GI50: 0.12 µM
  TGI: 0.769 µM
OVCAR-8 ovarian
  GI50: 0.165 µM
  TGI: 1.15 µM
SNB-75 CNS
  GI50: 0.0136 µM
  TGI: 0.165 µM
MOLT-4 leukemia
  GI50: < 0.01 µM
  TGI: 0.0169 µM
HCC-2998 colon
  GI50: 0.203 µM
  TGI: 1.98 µM
M14 melanoma
  GI50: 0.016 µM
  TGI: 1.74 µM
SF-268 CNS
  GI50: 0.0307 µM
  TGI: 0.26 µM
NCI-H226 lung
  GI50: 0.0174 µM
  TGI: 0.132 µM
MALME-3M melanoma
  GI50: 0.0455 µM
  TGI: 1.85 µM
UACC-257 melanoma
  GI50: 1.23 µM
  TGI: 2.73 µM
NCI-H460 NSCLC
  GI50: < 0.01 µM
  TGI: 0.141 µM
K-562 leukemia
  GI50: < 0.01 µM
  TGI: 0.0178 µM
SN12C renal
  GI50: 0.0224 µM
  TGI: 0.207 µM
A549 NSCLC
  GI50: 0.0201 µM
  TGI: 6.83 µM
HS 578T breast
  GI50: 0.0423 µM
  TGI: 0.204 µM
A498 renal
  GI50: 0.189 µM
  TGI: 12.4 µM
HOP-62 NSCLC
  GI50: 0.0692 µM
  TGI: 0.306 µM
MDA-MB-435 melanoma
  GI50: 0.209 µM
  TGI: 2.42 µM
T-47D breast
  GI50: 0.267 µM
  TGI: 17.3 µM
SR leukemia
  GI50: < 0.01 µM
OVCAR-3 ovarian
  GI50: 0.0316 µM
  TGI: 0.4 µM
MDA-MB-231 breast
  GI50: 0.0378 µM
  TGI: 1.49 µM
PC-3 prostate
  GI50: 0.0815 µM
  TGI: 2.61 µM
NCI-H23 lung
  GI50: 0.0145 µM
  TGI: 0.189 µM
SK-MEL-5 melanoma
  GI50: 0.258 µM
  TGI: 1.73 µM
TK-10 renal
  GI50: 0.137 µM
  TGI: 0.587 µM
SNB-19 CNS
  GI50: 0.136 µM
  TGI: 11.7 µM
NCI-H322M lung
  GI50: 0.238 µM
  TGI: 1.28 µM
KM12 colon
  GI50: < 0.01 µM
  TGI: 0.0638 µM

## C[C@@]1(c2ncncc2F)NC(=O)c2cc(-c3cn[nH]c3)ccc21
SF-295 CNS
  GI50: 28.5 µM
  TGI: > 85 µM
EKVX NSCLC
  GI50: 16.7 µM
  TGI: 42.5 µM
COLO 205 colon
  GI50: 2.01 µM
  TGI: 4.03 µM
U251 glioblastoma
  GI50: 11.1 µM
  TGI: 48.4 µM
SK-OV-3 ovarian
  GI50: 28.9 µM
  TGI: > 71.3 µM
OVCAR-4 ovarian
  GI50: 42 µM
  TGI: 88.8 µM
786-0 renal
  GI50: 16 µM
  TGI: 35.1 µM
NCI-H522 lung
  GI50: 4.74 µM
  TGI: 38.6 µM
SK-MEL-28 melanoma
  GI50: 11.8 µM
  TGI: 27.6 µM
HT29 colon
  GI50: 5.11 µM
  TGI: 25.4 µM
ACHN renal
  GI50: 20.9 µM
  TGI: 69.8 µM
MCF7 breast
  GI50: 26.6 µM
  TGI: > 83 µM
SF-539 CNS
  GI50: 12.1 µM
  TGI: 29.1 µM
RXF 393 renal
  GI50: 25.3 µM
  TGI: 42.4 µM
BT-549 breast
  GI50: 9.62 µM
  TGI: 24.2 µM
HL-60(TB) leukemia
  GI50: 5.53 µM
  TGI: 16.7 µM
MDA-MB-468 breast
  GI50: 5.03 µM
  TGI: 14.4 µM
NCI/ADR-RES ovarian
  GI50: 62.6 µM
  TGI: > 100 µM
CAKI-1 renal
  GI50: 20.1 µM
  TGI: 63.4 µM
RPMI-8226 leukemia
  GI50: 24 µM
  TGI: 41.3 µM
HCT-15 colon
  GI50: 15.9 µM
  TGI: > 83.9 µM
OVCAR-5 ovarian
  GI50: 16.3 µM
  TGI: 50.2 µM
IGROV1 ovarian
  GI50: 20.5 µM
  TGI: 56.1 µM
SW-620 colon
  GI50: 2.03 µM
  TGI: 5.93 µM
UACC-62 melanoma
  GI50: 12.2 µM
  TGI: 28.8 µM
DU-145 prostate
  GI50: 16.2 µM
  TGI: > 100 µM
OVCAR-8 ovarian
  GI50: 25.8 µM
  TGI: 82.6 µM
SNB-75 CNS
  GI50: 14.1 µM
  TGI: 28.4 µM
MOLT-4 leukemia
  GI50: 13.8 µM
  TGI: 27.8 µM
HCC-2998 colon
  GI50: 12.6 µM
  TGI: 34.3 µM
M14 melanoma
  GI50: 5.45 µM
  TGI: 22 µM
SF-268 CNS
  GI50: 13 µM
  TGI: 31 µM
NCI-H226 lung
  GI50: 18.4 µM
  TGI: 60.7 µM
MALME-3M melanoma
  GI50: 2.77 µM
  TGI: 14.4 µM
UACC-257 melanoma
  GI50: 17.8 µM
  TGI: 44.9 µM
NCI-H460 NSCLC
  GI50: 15.5 µM
  TGI: 41.6 µM
K-562 leukemia
  GI50: 11.2 µM
  TGI: > 100 µM
SN12C renal
  GI50: 17.3 µM
  TGI: 49.9 µM
A549 NSCLC
  GI50: 17.3 µM
  TGI: > 100 µM
HCT-116 colon
  GI50: 6.88 µM
  TGI: > 100 µM
HS 578T breast
  GI50: 18.4 µM
  TGI: 35.2 µM
A498 renal
  GI50: 10.9 µM
  TGI: > 92 µM
HOP-62 NSCLC
  GI50: 16 µM
  TGI: 50.8 µM
MDA-MB-435 melanoma
  GI50: 15.7 µM
  TGI: 38.3 µM
T-47D breast
  GI50: 30.9 µM
  TGI: 82.1 µM
SR leukemia
  GI50: 2.56 µM
  TGI: 5.45 µM
OVCAR-3 ovarian
  GI50: 22.2 µM
  TGI: 52.4 µM
MDA-MB-231 breast
  GI50: 14.9 µM
  TGI: 33.1 µM
PC-3 prostate
  GI50: 21.6 µM
  TGI: 71.1 µM
NCI-H23 lung
  GI50: 10.4 µM
  TGI: 25.2 µM
SK-MEL-2 melanoma
  GI50: 31.8 µM
  TGI: 54 µM
SK-MEL-5 melanoma
  GI50: 13 µM
  TGI: 31 µM
TK-10 renal
  GI50: 15.8 µM
  TGI: 36 µM
HOP-92 NSCLC
  GI50: 19.4 µM
  TGI: 47.5 µM
SNB-19 CNS
  GI50: 28.8 µM
  TGI: > 100 µM
NCI-H322M lung
  GI50: 22.4 µM
  TGI: 58.4 µM
CCRF-CEM leukemia
  GI50: 2.74 µM
  TGI: 7.58 µM
KM12 colon
  GI50: 15.8 µM
  TGI: 35.1 µM
